The values below come from patent publication US5409948A (priority 1992, dated 1995).

Entries after “also recorded” stand apart in the source; their conditions may differ.

Data set [1] relates to cholinesterase (ChE). Conditions: cited from earlier work.
The conditions of data set [2]: in vivo; cited from earlier work.
Data set [3] concerns scopolamine-induced impairment in learning performance of rats. Set-up: species or system male Fischer-344 rats. Conditions: rat, in vivo.
In data set [4] the test system is plasma AChE. It is filed as in vivo, Fischer-344 rats.
The subject of data set [5] is neuromuscular AChR. Conditions: cited from earlier work.
Data set [6] has as its system patients with Alzheimer's disease. Conditions: human, in vivo; cited from earlier work.
Data set [7] deals with brain and plasma AChE and BChE. Conditions: cited from earlier work.
For data set [8], the system named is acetylcholine in brain. Conditions: in vivo; cited from earlier work.
In data set [9] the test system is scopolamine-induced impairment in learning performance of rats. Conditions: rat, in vivo; cited from earlier work.
For data set [10], the system named is memory consolidation in mice. Conditions: mouse, in vivo; cited from earlier work.
The test system of data set [11] is performance deficits induced by scopolamine. Conditions: in vivo; cited from earlier work.
In data set [12] the test system is cholinesterase. The note with it: cited from earlier work.
For data set [13] the following is noted: in vivo.
Data set [14] concerns human acetylcholinesterase (AChE). It is filed as biochemical.
For data set [15] the following is noted: rat, in vivo.
Data set [16] addresses human acetylcholinesterase (AChE). Conditions: read-out: IC50 against human AChE; cited from earlier work.
Data set [17] deals with human butyrylcholinesterase (BChE). Conditions: read-out: IC50 against human BChE; cited from earlier work.

With `CNC(=O)Oc1ccc2c(c1)[C@@]1(C)CCN(C)[C@H]1N2C` [(+)-physostigmine], the inhibition of cholinesterase result in data set [1] is “negligible inhibition; also recorded: negligible ChE inhibitory activity”.

Take `CNC(=O)Oc1ccc2c(c1)[C@]1(C)CCN(C)[C@@H]1N2C` [Physostigmine]: the LD50 in data set [2] is given as 0.6 mg/kg. For the same compound, the “activity in 14-unit T-maze model, in words” value in [3] was “no significant activity in this model”. Besides, in [4] (rat, in vivo), the “AChE inhibition at 60 minutes” value was “negligible” and the “AChE inhibition, immediate” value is on record as “approximately 50%”. For the same compound, the “properties at the neuromuscular AChR” value in data set [5] is recorded as “blocking properties as well as agonist properties”. In addition, the “pharmacological half life in patients” value in [6] is “short pharmacological half life”. Further, the “IC50 of brain vs plasma AChE and BChE” value in data set [7] is given as “similar”.

For `CN1[C@@H]2C[C@@H](OC(=O)[C@H](CO)c3ccccc3)C[C@H]1[C@@H]1O[C@@H]12` [SCOP, reference compound], the “all five measures of the maze task” value in data set [3] is “significantly worse performance in all five measures of the maze task”.

For `Nc1c2c(nc3ccccc13)CCCC2` [THA, tetrahydroaminoacridine], the “toxicity in Alzheimer's patients” value in data set [6] is given as “causes toxicity”.

On to `CCCCCCCNC(=O)Oc1ccc2c(c1)[C@]1(C)CCN(C)[C@@H]1N2C` [heptyl-Phy], for which, in [2], the “toxicity vs parent compound” value was “less toxicity than the parent compound”. Also, in [3], the “activity in 14-unit T-maze model, in words” value is given as “inferior to phenserine”; the “mean errors per trial at each block of three trials” value is listed as “reduced error performance compared to the SCOP group”; the “mean errors per trial for 15 trials” value is “significantly (P<0.05) better performance than the SCOP group”; the “ratio of alternation errors per trial to opportunities” value is “no significant effect”. For the same compound, in data set [8], the “increases in acetylcholine in brain vs parent compound” value is on record as “more persistent increases in acetylcholine in brain”. Further, in data set [9], the alternation error performance result is recorded as “lack of improvement”, the “learning impairment of SCOP-treated rats” value was “failed to ameliorate the learning impairment”, the number of errors result is listed as “significantly reduced the number of errors” and the “scopolamine-induced learning impairment of rats” value was “attenuated the scopolamine-induced learning impairment”. In addition, the memory consolidation entry in [10] was “facilitates memory consolidation in mice”. The “performance deficits induced by scopolamine” value in data set [11] is reported as “reverses the performance deficits induced by scopolamine”. For the same compound, the “inhibitory action on cholinesterase vs parent compound” value in [12] is given as “longer inhibitory action on cholinesterase”.

With `CN1CC[C@@]2(C)c3cc(OC(=O)Nc4ccccc4)ccc3N(C)[C@@H]12` [phenserine, (-)-N-phenylcarbamoyl eseroline], in data set [3], the SCOP-induced learning impairment result is given as “significantly attenuated the SCOP-induced learning impairment”; the alternation error ratio result is “only 10.0 and 1.5 mg/kg doses of phenserine improved alternation error performance at blocks 4 and 5 and block 5, respectively; also recorded: only the 10.0 and 1.5 mg/kg doses of phenserine reduced the ratio significantly at blocks 4 and 5 and block 5, respectively”; the error performance entry is reported as “all but the 7.5 mg/kg dose of phenserine significantly ameliorated error performance”; the “error performance at blocks 4 and 5” value was “improved error performance at maze training blocks 4 and 5 except the 7.5 mg/kg dose”. In data set [3], the “number of errors at block 4” value is “reduced significantly at block 4 by all but the 7.5 mg/kg dose”; the runtime entry is “all but the 7.5 mg/kg dose of phenserine significantly ameliorated error performance, runtime”; the shock duration entry is “all but the 7.5 mg/kg dose of phenserine significantly ameliorated error performance, runtime, shock frequency and shock duration”; the shock frequency result is “all but the 7.5 mg/kg dose of phenserine significantly ameliorated error performance, runtime, shock frequency”. In addition, in data set [3], the therapeutic window entry is reported as “wide therapeutic window”. Further, the “time after i.p. administration at which improvement of learning performance was observed” value in [3] (ip) is on record as “more than 1 hour”. Besides, in data set [4] (at 8 hours), the “AChE inhibition at 8 hours” value stood at 43.0%. In [4] (rat, in vivo), the “AChE inhibition and its duration, in words” value is “long, steady state inhibition of AChE at very low and non-toxic doses”; the “AChE inhibition compared to physostigmine” value is “dramatically higher inhibition of AChE at a lower dose”; the “duration of high and relatively constant AChE inhibition” value is “more than 8 hours”; the “maximum AChE inhibition” value stood at 73.5%. In data set [13], the “LD50 (in words)” value is reported as “substantially higher than that of physostigmine itself”, the central tremor result is “a slight central tremor is evident” and the toxicity or deaths result was “have not been associated with toxicity or deaths”. The “selectivity of anticholinesterase action (AChE vs BChE)” value in data set [14] was “high selectivity of anticholinesterase action”. Moreover, in data set [15], the activity of animals result is recorded as “seemed less active than at other doses”; the behavior of animals result is “very aggressive and difficult to handle”; the “peripheral cholinergic effects, such as salivation and diarrhea” value is on record as “not noticed at any doses tested”; the side effects result is “chewing, grooming, and wet dog shakes”. For the same compound, in [15], the “toxic side effects without peripheral cholinergic inhibitors” value was “large doses can be administered without toxic side effects”. The IC50 in data set [16] is 24 ± 6 nM. Moreover, the IC50 in data set [17] was 1300 ± 8.5 nM.

The term LD50 denotes the dose expected to kill half of the subjects tested. As usually defined, the IC50 is the concentration that gives 50% inhibition.
